Experimental findings from publication PMC7932521, “2-aminobenzimidazoles for leishmaniasis: From initial hit discovery to in vivo profiling” (PLoS Neglected Tropical Diseases, 2021) are described below.

Test [1] has as its system L. infantum (MHOM/BR/2005/NLC) strain expressing luciferase. It counts as in vivo, Leishmania infantum. Conditions: 40 mg/kg/day oral, 5 days, and washout. The protocol: Groups of female BALB/c mice (n = 5) were infected with 10^8 stationary phase promastigotes of L. infantum chagasi-LUC in a final volume of 100 μL by the intraperitoneal route. At day 14 post-infection, groups were orally treated for 5 days with either drug vehicle only (10% ethanol, 40% PEG400 and 0.4% Tween80 in saline buffer—pH adjusted to 9), miltefosine (40 mg/kg QD) or with compounds 29 and 39 (25 mg/kg QD). Light emission in the ventral abdominal cavity of infected animals was recorded by bioimaging (IVIS Spectrum, Caliper Life Sciences) on 14, 19- and 24-days post-infection. Before imaging, mice received 75 mg/kg VivoGlo™ Luciferin (Promega Corporation) (i.p.) and were anesthetized in a 2% isoflurane atmosphere (Cristália). Animals were then transferred to the imaging chamber and kept in a 2% isoflurane atmosphere. Emitted photons were collected using the high resolution (medium binning) mode. Total photon emission from a defined region of interest (ROI) corresponding to the whole abdominal area was registered. The same ROI was applied to all animals in any given group. Images were acquired 15 min after luciferin injection. Total photon emission from each mouse was quantified with Living Image software version 4.3.1 (Caliper Life Sciences), and results were expressed as the number of photons/s/ROI subtracted from the corresponding ROI in uninfected animals. The detected signal was presented as a pseudocolor image representing light intensity (red = most intense and blue = least intense) and superimposed on the gray scale reference image.

The test system of test [2] is L. major MHOM/SA/85/JISH118. Put plainly: VL/CL panel, intracellular amastigotes. Conditions: Leishmania major; average; read-out: IC-50 L. major MHOM/SA/85/JISH118. Type of test: cell-based. The protocol:
(§1) For the antileishmania in vitro assays, 3×10^4 PMM/well were seeded in 96-well plates. After 24h, 5×10^5 amastigotes/well were added and incubated for 2h at 37°C. Next, the compounds in 4-fold serial dilutions were added and the plates were further incubated for 5 days (37°C, 5% CO2). Parasite burdens were assessed using an inverted microscope after Giemsa staining. The results were expressed as percent reduction in parasite burdens compared to negative control wells (100% growth) and IC50 values were determined. Values represent the geometric mean of at least two independent experiments. Miltefosine was used as the positive control in all plates.

Test [3] relates to L. infantum LEM3323-cl4 PMM. The experiment in a line: VL/CL panel, intracellular amastigotes. Type of test: cell-based. Conditions: Leishmania infantum, read-out: IC-50 L. infantum LEM3323-cl4 PMM. The protocol:
as §1

The subject of test [4] is L. infantum MHOM/BR/2007/WC (L3015). Put plainly: VL/CL panel, intracellular amastigotes. Conditions: Leishmania infantum; average; read-out: IC-50 L. infantum MHOM/BR/2007/WC (L3015). Type of test: cell-based. The protocol: as §1
The subject of test [5] is L. infantum MHOM/FR/96/LEM3323-cl4. Put plainly: VL/CL panel, intracellular amastigotes. Type of test: cell-based. Conditions: Leishmania infantum; average; read-out: IC-50 L. infantum MHOM/FR/96/LEM3323-cl4. The protocol:
as §1

Test [6] relates to L. infantum MHOM/ES/2016/LLM-2346. Put plainly: VL/CL panel, intracellular amastigotes. Type of test: cell-based. Conditions: Leishmania infantum; average; read-out: IC-50 L. infantum MHOM/ES/2016/LLM-2346. The protocol:
as §1

Test [7] concerns L. donovani MHOM/ET/2007/LLM-1600. Put plainly: VL/CL panel, intracellular amastigotes. It counts as cell-based. Conditions: Leishmania donovani; average; read-out: IC-50 L. donovani MHOM/ET/2007/LLM-1600. The protocol: as §1
In test [8] the test system is L. major MHOM/IL/81/Friedlin. Put plainly: VL/CL panel, intracellular amastigotes. It counts as cell-based. Conditions: Leishmania major; average; read-out: IC-50 L. major MHOM/IL/81/Friedlin. The protocol:
as §1

In test [9] the test system is L. infantum LEM3323-cl4 MIL. Put plainly: VL/CL panel, intracellular amastigotes. Type of test: cell-based. Conditions: Leishmania infantum, read-out: IC-50 L. infantum LEM3323-cl4 MIL. The protocol:
as §1

Test [10] has as its system L. panamensis MHOM/PA/71/LS94. The experiment in a line: VL/CL panel, intracellular amastigotes. It counts as cell-based. Conditions: Leishmania panamensis; average; read-out: IC-50 L. panamensis MHOM/PA/71/LS94. The protocol:
as §1

In test [11] the test system is L. braziliensis MHOM/BR/94/H3227. The experiment in a line: VL/CL panel, intracellular amastigotes. Type of test: cell-based. Conditions: Leishmania braziliensis; average; read-out: IC-50 L. braziliensis MHOM/BR/94/H3227. The protocol:
as §1

Test [12] relates to L. tropica MHOM/AF/2015/HTD7. The experiment in a line: VL/CL panel, intracellular amastigotes. It counts as cell-based. Conditions: Leishmania tropica; average; read-out: IC-50 L. tropica MHOM/AF/2015/HTD7. The protocol:
as §1

The test system of test [13] is L. guyanensis MHOM/PE/02/PER 054/0. The experiment in a line: VL/CL panel, intracellular amastigotes. Type of test: cell-based. Conditions: Leishmania guyanensis; average; read-out: IC-50 L. guyanensis MHOM/PE/02/PER 054/0. The protocol: as §1
For test [14], the system named is L. donovani MHOM/NP/03/BPK275/0-cl18. Put plainly: VL/CL panel, intracellular amastigotes. It counts as cell-based. Conditions: Leishmania donovani; average; read-out: IC-50 L. donovani MHOM/NP/03/BPK275/0-cl18. The protocol:
as §1

In test [15] the test system is L. donovani MHOM/ NP/2003/ BPK282/0-cl4. The experiment in a line: VL/CL panel, intracellular amastigotes. It counts as cell-based. Conditions: Leishmania donovani; average; read-out: IC-50 L. donovani MHOM/ NP/2003/ BPK282/0-cl4. The protocol: as §1
Test [16] deals with Leishmania infantum MHOM/MA(BE)/67/ITMAP263 amastigotes. The experiment in a line: L. infantum intracellular amastigote assay in PMM. It counts as cell-based. Conditions: Leishmania infantum. Summed up: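 Mouse peritoneal macrophages infected with hamster spleen-derived amastigotes (2 h, 37°C), then exposed to 4-fold dilutions from 64 μM (DMSO <1%) for 5 days at 37°C, 5% CO2. Burden scored microscopically after Giemsa staining as percent reduction vs untreated wells; IC50 as geometric mean of ≥2 experiments.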

pIC50: −log10 of the molar value. Like-named read-outs stand apart in the source and are kept apart here.

Take `CCCCCCCCCCCCCCCCOP(=O)([O-])OCC[N+](C)(C)C` [Miltefosine, reference compound]: in test [1], the “parasite load (total ventral bioluminescence)” value is reported as “undetectable levels”. Besides, the pIC50 in test [2] is 4.62; in [3], 5.57; in [4], 5.67; in test [5], 5.70; in test [6] it was 5.68; in [7] it was 5.70. For the same compound, the pIC50 in [8] is 4.95; in test [9], 4.69; in test [10], 5.74; in test [11] it was 6.00; in [12], 5.67; in test [13], 5.09. Besides, the pIC50 was 5.68 in [14]; 5.74 in test [15]; 4.95 in test [16] (120 h, intracellular amastigotes in PMM, 5 days, read-out: L. infantum IC50); 5.94 in [16] (panel sheet, average, read-out: IC-50 L. infantum MHOM/MA/67/ITMAP263).
